# From patent US5478807A, “Use of relaxin in the treatment of bradycardia” (Genentech, Inc., priority 1992, dated 1995)
# Several values for one entry are separate records, joined by “and”; a condition that tells them apart may be missing. Equal entries are not always repeated.
# Assays:
# [1] = target: T1, relaxin binding sites in the rat uterus (Rattus norvegicus, UniProt Q6R6I6); test: Displacement of 32P-relaxin binding in rat uterus tissue sections (autoradiography)
# T1 construct: The frozen tissues were sectioned to 16 μm thickness; from tissue; host or cells: rat uterus (uterine horn, cervix) frozen sections
# T1 sequence (Q6R6I6 1-758): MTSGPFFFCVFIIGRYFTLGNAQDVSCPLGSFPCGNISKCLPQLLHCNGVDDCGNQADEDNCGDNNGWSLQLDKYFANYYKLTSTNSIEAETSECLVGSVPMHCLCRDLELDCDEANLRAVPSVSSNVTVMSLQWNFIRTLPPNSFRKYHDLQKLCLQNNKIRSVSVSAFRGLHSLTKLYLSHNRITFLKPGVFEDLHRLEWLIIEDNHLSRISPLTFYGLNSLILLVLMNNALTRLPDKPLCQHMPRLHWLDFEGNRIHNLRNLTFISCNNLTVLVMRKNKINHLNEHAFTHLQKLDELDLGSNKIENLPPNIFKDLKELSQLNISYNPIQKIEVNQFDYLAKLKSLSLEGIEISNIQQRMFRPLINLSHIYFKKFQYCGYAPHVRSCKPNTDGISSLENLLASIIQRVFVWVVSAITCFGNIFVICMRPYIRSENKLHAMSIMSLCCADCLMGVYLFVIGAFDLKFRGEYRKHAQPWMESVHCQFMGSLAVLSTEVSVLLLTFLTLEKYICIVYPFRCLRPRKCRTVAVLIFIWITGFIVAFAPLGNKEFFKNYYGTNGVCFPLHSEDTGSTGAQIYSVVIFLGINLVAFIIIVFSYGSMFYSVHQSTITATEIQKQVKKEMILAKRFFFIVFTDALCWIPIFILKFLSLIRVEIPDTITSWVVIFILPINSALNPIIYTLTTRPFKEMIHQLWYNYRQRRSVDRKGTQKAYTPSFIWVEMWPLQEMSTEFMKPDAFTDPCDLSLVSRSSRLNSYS
# Experimental: Ten-week-old normal male and cyclic female Sprague-Dawley rats (Charles River Breeding Laboratories, Wilmonton, Mass.) were used for binding specificity and binding displacement experiments. These were given food and water ad libidium and housed in a room with the ambient temperature controlled around 21° C.
# The frozen tissues were sectioned to 16 μm thickness using a Reichert-Jung Model 2800 Frigocut cryostat (Cambridge Instruments). Tissue sections were fixed onto gelatin/chromium potassium sulfate treated microscope slides by warming, and immediately refrozen and stored at -80° C. overnight or longer. […]
# Regions of binding were determined by overlaying the autoradiographs with adjacent sections counterstained with hematoxylin-eosin. […] Pseudocolor reconstruction and quantitative analysis of ^32 P-relaxin binding autoradiographs were performed with a RAS-3000 image analysis system (Amersham). The OD or radioactivities (cpm) of bound ^32 P relaxin (maximum binding in a particular region) were quantified by computerized densitometry based on parallel sets of ^32 P-relaxin standards (ranging from 50 to 2000 cpm) blotted onto nitrocellulose membranes (Trans-Blot SF, Bio-Rad, Richmond, Calif.). […] The dissociation constant (Kd) for relaxin was calculated by the method of Cheng and Prusoff [Biochem. Pharmacol. 22, 3099-3108 (1973)].
# right atrium = test: Right atrial rate, isolated spontaneously beating right atrium; parameters: species or system rat; conditions: for right atrial heart rate % Δ, mean (X): mean of experiments; for right atrial heart rate / right atrial heart rate % Δ: single experiment
# Experimental: Krebs-Henseleit solution was prepared with the following composition (in millimoles): NaCl 118; KCl 4.7; MgSO4 1.64; NaHCO3 24.88; KH2 PO4 1.18; d-glucose 11.1; bubbled with 95% O2 /5% CO2; CaCl2 2.52.
# Human (H2) relaxin (hRLx-2, 1.5 mg/ml; Genentech) was diluted fresh daily to desired concentrations (500:1; 5000:1; 50000:1) in Krebs-Henseleit solution.
# Male Wistar rats (Charles River) weighing 475-525 g each, were anesthetized with sodium pentobarbital (60 mg/kg). After thoracotomy, the heart was removed rapidly and placed in cold (4° C.) Krebs-Henseleit solution until spontaneous contractions ceased. The right and left atria were excised.
# Tissue was bathed in an organ chamber holding 42 ml Krebs-Henseleit solution that was aerated with 95% O2 /5% CO2 and heated to 37° C. with a temperature controlled water jacket. Tissue contractions were measured with force-displacement transducers (Grass FT 0.3) and recorded on chart paper (Grass moled 79 polygraph). The rates of contractions were determined with a cardiotachometer (Grass). Electrical stimulation of tissue was induced through bipolar clip electrodes connected to a stimulator through a stimulus isolation unit (Grass model S48).
# Stainless steel clips weighing 0.5 g each were attached to each end of the right atrium. One clip was secured to a hook within the organ chamber and the other clip was attached to the force-displacement transducer. The position of the transducer was adjusted to yield 0.5 g resting tension.
# In all experiments the atria were allowed to stabilize for 30 minutes prior to addition of drugs. […] Thus, cumulative dose-response curves were generated. At 10 minute intervals, relaxin was added to each organ chamber to obtain bath concentrations of 100 pg/ml, 300 pg/ml, 1 ng/ml, 3 ng/ml, 10 ng/ml and 30 ng/ml.
# Measurement of contraction rate and force of contraction following each dose of relaxin were obtained after responses reached a steady state. Rate was determined directly from the output of the cardiotachometer. Force of contraction was measured as the magnitude of the contractile twitches. In order to adjust for variations between tissues, data are expressed as percent changes from pre-drug values, as means±standard errors. Measurements of rate were obtained in seven right atria; measurement of contractile force were obtained in four left atria.
substance,measurement,setting,value
relaxin,Kd,"[1]; rat uterus (uterine horn, cervix), displacement of 100 pM 32P-relaxin, mean±S.E. of two regions, read-out: dissociation constant (Kd)",1.3 ± 0.22 nM
same,extent of displacement of 32P-relaxin binding,"[1]; uterus, increasing concentrations of unlabeled relaxin",partial displacement
same,"right atrial heart rate % Δ, mean (X)",right atrium; 100 pg (printed under 30 pg),0.17%
same,right atrial heart rate,right atrium; 100 pg,290 beats/min and 270 beats/min and 300 beats/min and 320 beats/min
same,right atrial heart rate % Δ,"right atrium; 100 pg, change from pre-drug value",0% and 1%
same,"right atrial heart rate % Δ, mean (X)",right atrium; 300 pg (printed under 100 pg),3.83%
same,right atrial heart rate,right atrium; 300 pg,300 beats/min and 295 beats/min and 310 beats/min and 330 beats/min
same,right atrial heart rate % Δ,right atrium; 300 pg,3% and 9% and 5% and 0%
same,"right atrial heart rate % Δ, mean (X)",right atrium; 1 ng (printed under 300 pg),11.67%
same,right atrial heart rate,right atrium; 1 ng,320 beats/min and 310 beats/min and 350 beats/min and 345 beats/min
same,"right atrial heart rate % Δ, mean (X)",right atrium; 3 ng (printed under 1 ng),23.33%
same,right atrial heart rate,right atrium; 3 ng,345 beats/min and 350 beats/min and 400 beats/min and 360 beats/min and 365 beats/min
same,"right atrial heart rate % Δ, mean (X)",right atrium; 10 ng (printed under 3 ng),32.0%
same,right atrial heart rate,right atrium; 10 ng,345 beats/min and 390 beats/min and 445 beats/min and 370 beats/min and 385 beats/min and 380 beats/min
same,"right atrial heart rate % Δ, mean (X)",right atrium; 30 ng (printed under 10 ng),36.2%
same,average increase in contraction rate,right atrium; 30 ng/minute dose,36%
same,right atrial heart rate,right atrium; 30 ng,400 beats/min and 450 beats/min and 385 beats/min and 395 beats/min and 405 beats/min
same,point of half maximal increase in contraction rate,right atrium; right atrium,about 1.8 ng/ml
